Data taken from patent US6911549B1, “Method of preparing a taxol derivative” (priority 1992, dated 2005).
Values after ≈ are worked out from the molar mass of the structure shown. One block for each compound: values may come before it.

Legend:
L1210 leukemia = L1210 leukemia cell proliferation inhibition (Table 1, procedure of Li et al.); assay type: cell-based, mouse; settings: drug concentration required to inhibit cell proliferation to 50% of untreated control cells; for IC50: Mus musculus, L1210, read-out: L1210 (IC50 μg/ml)
From the text: The biological activity of the compounds of this invention has been further confirmed using well known procedures against L1210 leukemia and the results set forth in Table I. The results were obtained using standard well known procedure (Li, L. H.; Kuentzel, S. L.; Murch, L. L.; Pschigoga, L. M.; and W. C. Krueger, “Comparative biological and biochemical effects of nogalamycin and its analogs on L1210 leukemia,” Cancer Res. 39:4816-4822 (1979)). The results are expressed as an IC50 which is the drug concentration required to inhibit cell proliferation to 50% of that of untreated control cells. Lower numbers indicated greater activity.

[1] = tested on: A2780 (human ovarian carcinoma) cells; assay: Cytotoxicity in A2780 (human ovarian carcinoma) cells in culture (IC90); assay type: cell-based
From the text: (§1) The biological activity of the 7-deoxy-7-halotaxol compounds (Formula III) of the invention has been confirmed using well known procedures.

tubulin = assay: In vitro tubulin polymerization assay after Gaskin et al.; assay type: biochemical; settings: in vitro at 20° C.; for induction of tubulin polymerization in vitro: compared with taxol
From the text: (§2) The biological activity of the 7-deoxy-7β,8β-methanotaxol compounds (Formula II) of the invention has been confirmed using well known procedures.
as §1

[2] = tested on: L1210 mouse leukemia carcinoma cells; assay: Cytotoxicity in L1210 mouse leukemia carcinoma cells in culture (IC90); assay type: cell-based
From the text: as §2

Compound: CC(=O)O[C@H]1C(=O)[C@@]2(C)C(F)C[C@H]3OC[C@@]3(OC(C)=O)[C@H]2[C@H](OC(=O)c2ccccc2)[C@]2(O)C[C@H](OC(=O)[C@H](O)[C@@H](NC(=O)NC(C)(C)C)c3ccccc3)C(C)=C1C2(C)C (stereo partly shown) [Compound 28, N-debenzoyl-N-(t-butyl)aminocarbonyl-7-deoxy-7-fluoro-taxol]
L1210 (IC50 μg/ml) (L1210 leukemia): 0.0055 µg/mL

Compound: CC(=O)O[C@H]1C(=O)[C@]2(C)C(F)C[C@H]3OC[C@@]3(OC(C)=O)[C@H]2[C@H](OC(=O)c2ccccc2)[C@]2(O)CC(OC(=O)[C@H](O)[C@@H](NC(=O)c3ccccc3)c3ccccc3)C(C)=C1C2(C)C (stereo partly shown) [Compound IIIb, 7-Deoxy-7-fluorotaxol]
IC90 ([1]; Homo sapiens, A2780, read-out: IC90 (90% growth inhibitory concentration)): 0.016 µg/mL (≈ 0.0187 µM)
IC50 (L1210 leukemia): 0.01 µg/mL (≈ 0.0117 µM)
potency relative to taxol in tubulin polymerization assay (tubulin): approximately half as potent as taxol
induction of tubulin polymerization in vitro (tubulin): able to induce tubulin polymerization in vitro at 20 °C in a manner very similar to taxol

Compound: CC(=O)OC1C(=O)C2(C)C(F)CC3OCC3(OC(C)=O)C2C(OC(=O)c2ccccc2)C2(O)CC(OC(=O)C(O)C(NC(=O)OC(C)(C)C)c3ccccc3)C(C)=C1C2(C)C (stereo not shown) [Compound 20, N-Debenzoyl-N-(t-butyl)oxycarbonyl-7-deoxy-7-fluorotaxol]
L1210 (IC50 μg/ml) (L1210 leukemia): 0.0038 µg/mL

Compound: CC(=O)OC1C(=O)C23CC2CC2OCC2(OC(C)=O)C3C(OC(=O)c2ccccc2)C2(O)CC(OC(=O)C(OC(=O)OCC(Cl)(Cl)Cl)C(NC(=O)c3ccccc3)c3ccccc3)C(C)=C1C2(C)C (stereo not drawn) [Compound 14AA, 2′-{[(2,2,2-Trichloroethyl)oxy]carbonyl}-7-deoxy-7β,8β-methanotaxol]
L1210 (IC50 μg/ml) (L1210 leukemia): >0.1 µg/mL

Compound: CC(=O)OC1C(=O)C2(C)C(F)CC3OCC3(OC(C)=O)C2C(OC(=O)c2ccccc2)C2(O)CC(OC(=O)C(OC(=O)OCC(Cl)(Cl)Cl)C(NC(=O)c3ccccc3)c3ccccc3)C(C)=C1C2(C)C (stereo not shown) [Compound 13AA, 2′-{[(2,2,2-Trichloroethyl)-oxy]carbonyl}-7-deoxy-7-fluorotaxol]
L1210 (IC50 μg/ml) (L1210 leukemia): 0.054 µg/mL

Compound: CC(=O)O[C@H]1C(=O)[C@@]23CC2C[C@H]2OC[C@@]2(OC(C)=O)[C@H]3[C@H](OC(=O)c2ccccc2)[C@]2(O)C[C@H](OC(=O)[C@H](O)[C@@H](NC(=O)NC(C)(C)C)c3ccccc3)C(C)=C1C2(C)C (stereo partly drawn) [Compound 29, N-debenzoyl-N-(t-butyl)aminocarbonyl-7-deoxy-7β,8β-methano-taxol]
L1210 (IC50 μg/ml) (L1210 leukemia): 0.006 µg/mL

L1210 (IC50 μg/ml) (L1210 leukemia): 0.015 µg/mL
Compound: CC(=O)O[C@H]1C(=O)[C@]2(C)C(F)C[C@H]3OC[C@@]3(OC(C)=O)[C@H]2[C@H](OC(=O)c2ccccc2)[C@]2(O)C[C@H](OC(=O)[C@H](OC(=O)OCC(Cl)(Cl)Cl)[C@@H](NC(=O)OC(C)(C)C)c3ccccc3)C(C)=C1C2(C)C (stereo partly shown) [Compound 13DA, N-Debenzoyl-N-(t-butyl)oxycarbonyl-2′-{[(2,2,2-trichloroethyl)oxy]carbonyl}-7-deoxy-7-fluorotaxol]

Compound: CC(=O)O[C@H]1C(=O)[C@@]2(C)[C@H]([C@H](OC(=O)c3ccccc3)[C@]3(O)C[C@H](OC(=O)[C@H](O)[C@@H](NC(=O)c4ccccc4)c4ccccc4)C(C)=C1C3(C)C)[C@]1(OC(C)=O)CO[C@@H]1C[C@@H]2O [Taxol]
IC90 (90% growth inhibitory concentration) ([1]; A2780 (human ovarian carcinoma) cells in culture): 0.007 micrograms/ml
IC90 (90% growth inhibitory concentration) [2]: 0.06 micrograms/ml
L1210 (IC50 μg/ml) (L1210 leukemia): 0.015 µg/mL

Compound: CC(=O)O[C@H]1C(=O)C23C[C@@H]2CC2OC[C@@]2(OC(C)=O)C3[C@H](OC(=O)c2ccccc2)[C@]2(O)CC(OC(=O)C(OC(=O)OCC(Cl)(Cl)Cl)[C@@H](NC(=O)OC(C)(C)C)c3ccccc3)C(C)=C1C2(C)C (stereo partly drawn) [Compound 14DA, N-Debenzoyl-N-(t-butyl)oxycarbonyl-2′-{[(2,2,2-trichloroethyl)oxy]carbonyl}-7-deoxy-7β,8β-methanotaxol]
IC50 (L1210 leukemia): 0.012 µg/mL (≈ 0.0119 µM)

Compound: CC(=O)OC1C(=O)C23CC2CC2OCC2(OC(C)=O)C3C(OC(=O)c2ccccc2)C2(O)CC(OC(=O)C(O)C(NC(=O)c3ccccc3)c3ccccc3)C(C)=C1C2(C)C (stereo not drawn) [Compound IIb, 7-Deoxy-7β,8β-methanotaxol]
IC90 (90% growth inhibitory concentration) [2]: 0.025 micrograms/ml
L1210 (IC50 μg/ml) (L1210 leukemia): 0.012 µg/mL
induction of tubulin polymerization in vitro (tubulin): able to induce tubulin polymerization in vitro at 20 °C in a manner very similar to taxol

Compound: CC(=O)O[C@H]1C(=O)[C@]23C[C@H]2C[C@H]2OC[C@@]2(OC(C)=O)[C@H]3[C@H](OC(=O)c2ccccc2)[C@]2(O)C[C@H](OC(=O)[C@H](O)[C@@H](NC(=O)OC(C)(C)C)c3ccccc3)C(C)=C1C2(C)C [Compound 23, N-Debenzoyl-N-(t-butyl)oxycarbonyl-7-deoxy-7β,8β-methanotaxol]
L1210 (IC50 μg/ml) (L1210 leukemia): 0.0046 µg/mL

IC50 (L1210 leukemia): 0.004 µg/mL (≈ 0.00495 µM)
Compound: CC(=O)O[C@@]12CO[C@@H]1C[C@H](O)[C@@]1(C)C(=O)[C@H](O)C3=C(C)[C@@H](OC(=O)[C@H](O)[C@@H](NC(=O)OC(C)(C)C)c4ccccc4)C[C@@](O)([C@@H](OC(=O)c4ccccc4)[C@H]21)C3(C)C [Taxotere, reference compound]
